Reference: the NIST ThermoML archive (doi:10.1021/acs.jced.8b00157)
Values joined by “and” are separate entries in the source; they are usually repeats but may differ in a detail not shown here. Equal values may be shown once.

Assay: an = ratio of the nth substance listed
Settings: 100 kPa, Liquid, Buoyancy - hydrostatic balance

[F][Al]([F])[F] [aluminum fluoride] + [F-].[K+]
mass density
Settings	a2 = 1.3	a2 = 1.5
1013.8 K	1821 kg/m3	–
1014 K	1822 kg/m3	–
1014.2 K	1821 kg/m3	–
1014.4 K	1822 kg/m3	–
1014.5 K	1822 kg/m3	–
1014.9 K	1821 kg/m3	–
1015.1 K	1821 kg/m3	–
1015.2 K	1820 kg/m3 and 1821 kg/m3	–
1015.3 K	1822 kg/m3	–
1015.5 K	1821 kg/m3	–
1015.7 K	1820 kg/m3	–
1016.1 K	1819 kg/m3	–
1016.3 K	1820 kg/m3	–
1016.5 K	1819 kg/m3	–
1016.7 K	1819 kg/m3	–
1016.8 K	1819 kg/m3	–
1017 K	1818 kg/m3	–
1017.4 K	1818 kg/m3	–
1017.8 K	1819 kg/m3	–
1018 K	1818 kg/m3	–
1018.1 K	1818 kg/m3	–
1018.2 K	1819 kg/m3	–
1018.4 K	1819 kg/m3 and 1816 kg/m3	–
1018.5 K	1818 kg/m3	–
1018.6 K	1817 kg/m3	–
1018.9 K	1816 kg/m3	–
1019.5 K	1818 kg/m3	–
1019.7 K	1816 kg/m3	–
1019.8 K	1817 kg/m3	–
1019.9 K	1817 kg/m3 and 1815 kg/m3 and 1816 kg/m3	–
1020.3 K	1816 kg/m3	–
1020.5 K	1815 kg/m3	–
1020.8 K	1815 kg/m3	–
1021 K	1816 kg/m3	–
1021.1 K	1816 kg/m3	–
1021.2 K	1814 kg/m3	–
1021.4 K	1815 kg/m3	–
1021.7 K	1816 kg/m3 and 1815 kg/m3	–
1022 K	1813 kg/m3	–
1022.1 K	1815 kg/m3	–
1022.6 K	1815 kg/m3	–
1022.8 K	1813 kg/m3	–
1022.9 K	1812 kg/m3	–
1023 K	1814 kg/m3	–
1023.1 K	1814 kg/m3	–
1023.2 K	1814 kg/m3	–
1023.4 K	1813 kg/m3	–
1023.7 K	1812 kg/m3	–
1024 K	1813 kg/m3	–
1024.1 K	1812 kg/m3	–
1024.4 K	1812 kg/m3	–
1024.9 K	1813 kg/m3 and 1811 kg/m3	–
1025 K	1811 kg/m3	–
1025.2 K	1813 kg/m3	–
1025.6 K	1810 kg/m3	–
1025.7 K	1810 kg/m3	–
1025.8 K	1812 kg/m3	–
1026 K	1812 kg/m3	–
1026.2 K	1812 kg/m3	–
1026.4 K	1810 kg/m3	–
1026.5 K	1809 kg/m3	–
1026.6 K	1810 kg/m3	–
1026.7 K	1811 kg/m3	–
1026.9 K	1809 kg/m3	–
1027.1 K	1810 kg/m3	–
1027.2 K	1808 kg/m3	–
1027.3 K	1811 kg/m3	–
1027.4 K	1808 kg/m3	–
1027.5 K	1809 kg/m3	–
1027.9 K	1809 kg/m3	–
1028 K	1809 kg/m3	–
1028.1 K	1809 kg/m3	–
1028.3 K	1807 kg/m3	–
1028.6 K	1807 kg/m3	–
1028.7 K	1807 kg/m3	–
1028.9 K	1808 kg/m3	–
1029.1 K	1806 kg/m3	–
1029.3 K	1807 kg/m3 and 1808 kg/m3	–
1029.4 K	1807 kg/m3	–
1029.8 K	1806 kg/m3	–
1030.3 K	1806 kg/m3	–
1030.6 K	1807 kg/m3 and 1806 kg/m3	–
1030.9 K	1805 kg/m3	–
1031.1 K	1806 kg/m3 and 1804 kg/m3	–
1031.5 K	1804 kg/m3	–
1031.7 K	1805 kg/m3 and 1806 kg/m3	–
1031.8 K	1805 kg/m3	–
1032.3 K	1803 kg/m3	–
1032.5 K	1805 kg/m3	–
1032.6 K	1803 kg/m3	–
1032.7 K	1804 kg/m3	–
1032.9 K	1804 kg/m3	–
1033.1 K	1803 kg/m3	–
1033.3 K	1803 kg/m3 and 1804 kg/m3	–
1033.5 K	1803 kg/m3	–
1033.7 K	1801 kg/m3 and 1802 kg/m3	–
1033.8 K	1803 kg/m3	–
1033.9 K	1804 kg/m3	–
1034.1 K	1802 kg/m3	–
1034.5 K	1801 kg/m3	–
1034.8 K	1802 kg/m3 and 1801 kg/m3	–
1034.9 K	1802 kg/m3	–
1035.3 K	1801 kg/m3 and 1800 kg/m3	–
1035.6 K	1800 kg/m3	–
1035.7 K	1799 kg/m3	–
1036.4 K	1799 kg/m3	–
1036.6 K	1801 kg/m3 and 1798 kg/m3	–
1037 K	1799 kg/m3	–
1037.1 K	1801 kg/m3	–
1037.5 K	1797 kg/m3	–
1037.7 K	1798 kg/m3	–
1038.1 K	1800 kg/m3 and 1797 kg/m3	–
1038.2 K	1799 kg/m3	–
1038.4 K	1796 kg/m3	–
1038.5 K	1799 kg/m3	–
1038.6 K	1799 kg/m3	–
1038.9 K	1799 kg/m3	–
1039 K	1796 kg/m3	–
1039.4 K	1799 kg/m3	–
1039.6 K	1795 kg/m3	–
1039.8 K	1795 kg/m3	–
1039.9 K	1798 kg/m3	–
1040.1 K	1795 kg/m3	–
1040.4 K	1795 kg/m3	–
1040.6 K	1798 kg/m3 and 1795 kg/m3	–
1040.8 K	1798 kg/m3	–
1040.9 K	1797 kg/m3	–
1041 K	1796 kg/m3 and 1797 kg/m3	–
1041.2 K	1795 kg/m3	–
1042.1 K	1796 kg/m3	–
1042.3 K	1794 kg/m3	–
1042.5 K	1796 kg/m3	–
1042.8 K	1793 kg/m3 and 1794 kg/m3	–
1042.9 K	1792 kg/m3 and 1794 kg/m3	–
1043 K	1793 kg/m3	–
1043.1 K	1795 kg/m3	–
1043.4 K	1795 kg/m3	–
1043.7 K	1795 kg/m3	–
1043.8 K	1794 kg/m3	–
1043.9 K	1794 kg/m3 and 1791 kg/m3	–
1044.3 K	1791 kg/m3	–
1044.4 K	1791 kg/m3	–
1045 K	1793 kg/m3	–
1045.3 K	1793 kg/m3 and 1790 kg/m3	–
1045.4 K	1789 kg/m3	–
1045.6 K	1792 kg/m3	–
1045.8 K	1793 kg/m3	–
1046.1 K	1793 kg/m3	–
1046.3 K	1789 kg/m3	–
1046.5 K	1789 kg/m3	–
1046.7 K	1792 kg/m3 and 1789 kg/m3	–
1046.9 K	1789 kg/m3	–
1047 K	1789 kg/m3	–
1047.3 K	1792 kg/m3	–
1047.4 K	1791 kg/m3	–
1047.6 K	1791 kg/m3	–
1048 K	1791 kg/m3	–
1048.1 K	1788 kg/m3	–
1048.4 K	1786 kg/m3	–
1048.6 K	1790 kg/m3 and 1786 kg/m3	–
1048.8 K	1788 kg/m3	–
1049.4 K	1789 kg/m3	–
1049.5 K	1789 kg/m3	–
1049.6 K	1786 kg/m3	–
1049.7 K	1785 kg/m3	–
1049.9 K	1789 kg/m3	–
1050.5 K	1788 kg/m3 and 1785 kg/m3	–
1050.6 K	1784 kg/m3	–
1051.2 K	1787 kg/m3	–
1051.3 K	1787 kg/m3	–
1051.5 K	1787 kg/m3 and 1783 kg/m3 and 1784 kg/m3	–
1051.6 K	1787 kg/m3 and 1782 kg/m3	–
1052 K	1783 kg/m3	–
1052.2 K	1786 kg/m3 and 1782 kg/m3	–
1052.7 K	1786 kg/m3	–
1053.2 K	1782 kg/m3	–
1053.4 K	1786 kg/m3	–
1053.5 K	1786 kg/m3	–
1053.7 K	1786 kg/m3	–
1053.9 K	1782 kg/m3	–
1054.4 K	1785 kg/m3	–
1054.7 K	1784 kg/m3	–
1055.3 K	1784 kg/m3	–
1055.6 K	1784 kg/m3	–
1056 K	1784 kg/m3	–
1056.1 K	1783 kg/m3	–
1056.3 K	1783 kg/m3	–
1056.4 K	1783 kg/m3	–
1057.3 K	1782 kg/m3	–
1057.7 K	1782 kg/m3	–
1057.9 K	1781 kg/m3	–
1058.1 K	1781 kg/m3	–
1059.2 K	1781 kg/m3	–
1059.3 K	1780 kg/m3	–
1059.5 K	1780 kg/m3	–
1060.2 K	1779 kg/m3 and 1780 kg/m3	–
1060.5 K	–	1796 kg/m3
1060.8 K	–	1796 kg/m3
1061.1 K	1778 kg/m3	1796 kg/m3
1061.2 K	1779 kg/m3	–
1061.3 K	1778 kg/m3	–
1061.5 K	1779 kg/m3	–
1061.6 K	1777 kg/m3	1796 kg/m3
1061.9 K	–	1795 kg/m3
1062.2 K	–	1795 kg/m3
1062.5 K	–	1795 kg/m3
1062.8 K	1777 kg/m3	–
1062.9 K	–	1795 kg/m3
1063.2 K	1776 kg/m3 and 1777 kg/m3	–
1063.3 K	–	1794 kg/m3
1063.6 K	–	1794 kg/m3
1063.7 K	1776 kg/m3	–
1064.1 K	1775 kg/m3	1794 kg/m3
1064.4 K	–	1794 kg/m3
1064.6 K	1775 kg/m3	–
1064.7 K	–	1793 kg/m3
1065.2 K	–	1793 kg/m3
1065.3 K	1775 kg/m3	–
1065.5 K	–	1792 kg/m3
1065.8 K	1774 kg/m3	–
1066 K	1774 kg/m3	1792 kg/m3
1066.3 K	1775 kg/m3	–
1066.4 K	–	1792 kg/m3
1066.7 K	–	1792 kg/m3
1066.9 K	1774 kg/m3	–
1067 K	1773 kg/m3	–
1067.2 K	1773 kg/m3	1791 kg/m3
1067.4 K	–	1791 kg/m3
1067.7 K	1772 kg/m3	–
1067.9 K	–	1791 kg/m3
1068.2 K	–	1790 kg/m3
